Tests used:
EGFR del19/T790M/C797S = EGFR del19/T790M/C797S (Homo sapiens, UniProt P00533, C797S/DEL746-750/T790M); experiment: Biochemical EGFR kinase assay (Lance Ultra TR-FRET), triple mutant del19/T790M/C797S; details: Km ATP; read-out: IC50 del19/T790M/C797S (nM) Km ATP
Outline: (§1)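 Enzyme reactions lasted 1 hour at room temperature with test compounds between 0.003 and 10 μM, followed by 10 mM EDTA quench.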

EGFR L858R/T790M/C797S = EGFR L858R/T790M/C797S (Homo sapiens, UniProt P00533, C797S/L858R/T790M); experiment: Biochemical EGFR kinase assay (Lance Ultra TR-FRET), triple mutant L858R/T790M/C797S; details: Km ATP; read-out: IC50 L858R/T790M/C797S (nM) Km ATP
Outline: as §1

EGFR del19/C797S = EGFR del19/C797S (Homo sapiens, UniProt P00533, C797S/DEL746-750); experiment: Biochemical EGFR kinase assay (Lance Ultra TR-FRET), double mutant del19/C797S; details: Km ATP; read-out: IC50 del19/C797S (nM) Km ATP
Outline: as §1

EGFR L858R/C797S = EGFR L858R/C797S (Homo sapiens, UniProt P00533, C797S/L858R); experiment: Biochemical EGFR kinase assay (Lance Ultra TR-FRET), double mutant L858R/C797S; details: Km ATP; read-out: IC50 L858R/C797S (nM) Km ATP
Outline: as §1

EGFR wildtype = EGFR wildtype (Homo sapiens, UniProt P00533); experiment: Biochemical EGFR kinase assay (Lance Ultra TR-FRET), wildtype; details: Km ATP; read-out: IC50 WT (nM) Km ATP
Outline: as §1

Chain of EGFR L858R/T790M/C797S (P00533 25-1210 T790M/C797S/L858R): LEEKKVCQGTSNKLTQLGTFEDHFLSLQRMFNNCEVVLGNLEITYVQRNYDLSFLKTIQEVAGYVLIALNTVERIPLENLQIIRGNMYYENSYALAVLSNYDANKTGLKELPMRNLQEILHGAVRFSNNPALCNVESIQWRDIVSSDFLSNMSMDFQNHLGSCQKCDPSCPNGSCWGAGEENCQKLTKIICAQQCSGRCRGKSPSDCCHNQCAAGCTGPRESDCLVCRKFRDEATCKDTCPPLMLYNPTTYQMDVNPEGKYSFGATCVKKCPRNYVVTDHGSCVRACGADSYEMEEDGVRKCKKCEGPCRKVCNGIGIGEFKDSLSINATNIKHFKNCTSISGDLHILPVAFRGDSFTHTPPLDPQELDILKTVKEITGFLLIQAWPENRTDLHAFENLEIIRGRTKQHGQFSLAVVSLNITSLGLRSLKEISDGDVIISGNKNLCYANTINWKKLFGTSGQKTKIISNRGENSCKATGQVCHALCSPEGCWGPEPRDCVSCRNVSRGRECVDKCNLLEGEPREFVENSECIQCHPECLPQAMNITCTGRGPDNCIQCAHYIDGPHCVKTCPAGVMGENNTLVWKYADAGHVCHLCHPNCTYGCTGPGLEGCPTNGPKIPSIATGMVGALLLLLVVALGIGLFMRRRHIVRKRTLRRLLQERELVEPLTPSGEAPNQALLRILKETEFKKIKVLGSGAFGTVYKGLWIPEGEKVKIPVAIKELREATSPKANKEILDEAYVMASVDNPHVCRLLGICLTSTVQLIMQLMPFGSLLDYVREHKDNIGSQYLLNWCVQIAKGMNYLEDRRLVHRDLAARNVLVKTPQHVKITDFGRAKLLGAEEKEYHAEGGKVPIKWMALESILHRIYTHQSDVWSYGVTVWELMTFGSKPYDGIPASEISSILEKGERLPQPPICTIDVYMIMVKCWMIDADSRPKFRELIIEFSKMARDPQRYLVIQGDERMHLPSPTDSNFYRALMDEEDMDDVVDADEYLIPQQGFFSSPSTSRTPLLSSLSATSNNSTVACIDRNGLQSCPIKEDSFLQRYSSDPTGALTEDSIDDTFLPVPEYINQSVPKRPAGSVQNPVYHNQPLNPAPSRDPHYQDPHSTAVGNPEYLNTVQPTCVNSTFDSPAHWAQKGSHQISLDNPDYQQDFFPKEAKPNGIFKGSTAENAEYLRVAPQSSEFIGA
Chain of EGFR del19/T790M/C797S (P00533 with tags, fused parts or gaps DEL746-750/T790M/C797S): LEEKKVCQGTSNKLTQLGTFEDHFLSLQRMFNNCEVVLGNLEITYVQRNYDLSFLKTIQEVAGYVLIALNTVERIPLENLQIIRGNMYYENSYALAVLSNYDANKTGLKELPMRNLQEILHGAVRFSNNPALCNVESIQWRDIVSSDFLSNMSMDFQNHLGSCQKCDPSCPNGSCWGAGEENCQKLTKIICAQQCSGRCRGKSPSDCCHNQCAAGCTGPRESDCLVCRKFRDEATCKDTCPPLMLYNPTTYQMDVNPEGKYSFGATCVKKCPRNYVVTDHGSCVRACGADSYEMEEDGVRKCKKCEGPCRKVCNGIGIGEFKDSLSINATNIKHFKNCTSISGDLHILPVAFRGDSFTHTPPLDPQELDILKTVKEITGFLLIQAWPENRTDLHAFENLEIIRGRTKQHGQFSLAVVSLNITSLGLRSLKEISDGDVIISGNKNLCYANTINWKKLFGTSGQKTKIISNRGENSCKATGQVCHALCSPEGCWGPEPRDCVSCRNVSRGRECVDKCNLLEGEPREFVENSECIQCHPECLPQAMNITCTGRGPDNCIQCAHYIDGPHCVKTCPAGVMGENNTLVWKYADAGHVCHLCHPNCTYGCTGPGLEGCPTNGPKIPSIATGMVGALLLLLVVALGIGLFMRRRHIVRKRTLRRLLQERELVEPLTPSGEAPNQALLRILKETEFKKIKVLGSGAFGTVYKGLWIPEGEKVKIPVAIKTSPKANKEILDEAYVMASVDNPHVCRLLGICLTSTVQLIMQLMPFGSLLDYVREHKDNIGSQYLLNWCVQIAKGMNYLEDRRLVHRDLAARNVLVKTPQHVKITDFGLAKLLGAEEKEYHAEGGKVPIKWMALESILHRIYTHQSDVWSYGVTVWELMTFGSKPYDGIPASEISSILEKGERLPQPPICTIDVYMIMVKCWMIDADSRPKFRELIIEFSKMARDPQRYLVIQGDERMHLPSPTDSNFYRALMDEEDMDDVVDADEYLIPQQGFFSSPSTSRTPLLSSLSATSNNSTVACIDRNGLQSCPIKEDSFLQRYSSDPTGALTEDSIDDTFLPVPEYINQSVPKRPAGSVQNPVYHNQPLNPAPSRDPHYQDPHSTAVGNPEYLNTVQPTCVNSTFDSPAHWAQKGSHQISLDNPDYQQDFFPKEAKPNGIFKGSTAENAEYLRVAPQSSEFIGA
Chain of EGFR del19/C797S (P00533 with tags, fused parts or gaps DEL746-750/C797S): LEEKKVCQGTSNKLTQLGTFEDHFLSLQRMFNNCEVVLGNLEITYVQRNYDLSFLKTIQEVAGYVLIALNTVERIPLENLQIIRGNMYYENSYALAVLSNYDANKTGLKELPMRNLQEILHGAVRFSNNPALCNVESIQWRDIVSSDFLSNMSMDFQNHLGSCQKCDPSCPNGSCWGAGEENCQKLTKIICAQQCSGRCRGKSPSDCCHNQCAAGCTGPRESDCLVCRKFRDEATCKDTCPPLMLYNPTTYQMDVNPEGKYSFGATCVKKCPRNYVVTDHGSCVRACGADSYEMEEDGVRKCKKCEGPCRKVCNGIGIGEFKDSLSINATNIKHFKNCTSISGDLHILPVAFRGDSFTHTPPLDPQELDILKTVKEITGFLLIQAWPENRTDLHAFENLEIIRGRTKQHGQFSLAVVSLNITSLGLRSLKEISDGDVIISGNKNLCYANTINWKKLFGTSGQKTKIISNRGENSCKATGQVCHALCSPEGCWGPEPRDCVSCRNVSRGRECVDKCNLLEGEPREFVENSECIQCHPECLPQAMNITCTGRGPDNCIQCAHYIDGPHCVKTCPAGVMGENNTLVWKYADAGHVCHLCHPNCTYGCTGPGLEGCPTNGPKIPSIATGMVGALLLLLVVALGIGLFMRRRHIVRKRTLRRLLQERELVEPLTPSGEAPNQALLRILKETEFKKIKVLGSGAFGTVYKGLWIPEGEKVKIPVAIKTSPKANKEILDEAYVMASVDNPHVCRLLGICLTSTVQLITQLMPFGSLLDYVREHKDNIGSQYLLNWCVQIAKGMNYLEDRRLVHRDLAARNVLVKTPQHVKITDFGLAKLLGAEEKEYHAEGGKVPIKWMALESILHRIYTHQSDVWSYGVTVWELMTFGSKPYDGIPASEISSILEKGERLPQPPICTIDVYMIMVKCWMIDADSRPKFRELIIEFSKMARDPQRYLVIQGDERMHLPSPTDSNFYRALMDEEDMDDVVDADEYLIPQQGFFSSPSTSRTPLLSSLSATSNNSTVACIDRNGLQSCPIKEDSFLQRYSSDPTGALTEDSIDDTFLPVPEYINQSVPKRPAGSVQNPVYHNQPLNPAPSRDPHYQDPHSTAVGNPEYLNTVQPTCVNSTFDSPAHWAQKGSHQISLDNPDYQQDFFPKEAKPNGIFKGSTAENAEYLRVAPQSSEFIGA
Chain of EGFR L858R/C797S (P00533 25-1210 C797S/L858R): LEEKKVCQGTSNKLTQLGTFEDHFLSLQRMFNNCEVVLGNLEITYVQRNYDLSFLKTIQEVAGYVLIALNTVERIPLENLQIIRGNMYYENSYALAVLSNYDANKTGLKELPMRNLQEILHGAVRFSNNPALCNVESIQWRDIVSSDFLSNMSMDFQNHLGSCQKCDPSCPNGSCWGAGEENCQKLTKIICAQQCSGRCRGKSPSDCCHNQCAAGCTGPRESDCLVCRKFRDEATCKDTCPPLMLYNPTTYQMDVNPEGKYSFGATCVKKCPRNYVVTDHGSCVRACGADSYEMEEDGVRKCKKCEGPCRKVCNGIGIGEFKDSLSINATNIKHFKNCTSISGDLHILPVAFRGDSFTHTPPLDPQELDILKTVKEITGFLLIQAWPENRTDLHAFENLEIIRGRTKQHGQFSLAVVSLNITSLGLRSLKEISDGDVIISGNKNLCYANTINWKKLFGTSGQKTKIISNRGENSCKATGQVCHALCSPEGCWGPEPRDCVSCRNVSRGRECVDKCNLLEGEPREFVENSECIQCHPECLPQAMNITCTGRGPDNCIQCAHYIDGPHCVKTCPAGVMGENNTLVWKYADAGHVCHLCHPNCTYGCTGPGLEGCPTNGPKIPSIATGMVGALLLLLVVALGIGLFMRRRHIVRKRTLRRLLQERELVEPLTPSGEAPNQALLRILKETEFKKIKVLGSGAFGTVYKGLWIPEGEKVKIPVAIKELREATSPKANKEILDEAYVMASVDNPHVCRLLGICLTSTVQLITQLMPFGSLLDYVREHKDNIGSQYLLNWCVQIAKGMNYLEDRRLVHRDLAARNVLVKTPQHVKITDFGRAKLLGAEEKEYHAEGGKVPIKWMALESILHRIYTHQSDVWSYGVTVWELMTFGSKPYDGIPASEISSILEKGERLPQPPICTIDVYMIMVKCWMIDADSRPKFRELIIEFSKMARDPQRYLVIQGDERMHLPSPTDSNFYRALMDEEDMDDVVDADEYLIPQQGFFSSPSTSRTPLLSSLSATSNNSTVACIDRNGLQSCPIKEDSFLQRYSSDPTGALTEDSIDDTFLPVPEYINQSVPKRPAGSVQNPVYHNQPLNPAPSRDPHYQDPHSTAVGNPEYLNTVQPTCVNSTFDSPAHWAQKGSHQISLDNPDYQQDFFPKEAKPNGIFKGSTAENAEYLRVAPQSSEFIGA

IC50 (EGFR del19/T790M/C797S)	IC50 (EGFR L858R/T790M/C797S)	IC50 (EGFR del19/C797S)	IC50 (EGFR L858R/C797S)	IC50 (EGFR wildtype)	SMILES
0.3 nM	0.1 nM	9.7 nM	4.3 nM	7.4 nM	CC(C)Nc1cc(Nc2ccnc(-c3cnn(S(=O)(=O)C4CC4)c3)n2)ncc1-c1cnc(OCCN(C)C)cn1 [Example 122, N^2-(2-(1-(Cyclopropylsulfonyl)-1H-pyrazol-4-yl)pyrimidin-4-yl)-5-(5-(2-(dimethylamino)ethoxy)pyrazin-2-yl)-N^4-isopropylpyridine-2,4-diamine]
2.6 nM	0.7 nM	28.6 nM	2.3 nM	22 nM	O=S(=O)(C1CC1)n1cc(-c2nccc(Nc3cc(N[C@H]4CC[C@@H](F)CC4)c(-c4ccc(N5CCOCC5)cn4)cn3)n2)cn1 [Example 123, N^6′-(2-(1-(Cyclopropylsulfonyl)-1H-pyrazol-4-yl)pyrimidin-4-yl)-N^4′-((1s,4s)-4-fluorocyclohexyl)-5-morpholino-[2,3′-bipyridine]-4′,6′-diamine]
0.3 nM	0.4 nM	3.3 nM	0.4 nM	12.7 nM	CC(C)Nc1cc(Nc2ccnc(-c3cnn(S(=O)(=O)C4CC4)c3)n2)ncc1-c1ccc(N2CCOCC2)cn1 [Example 124, N^6′-(2-(1-(Cyclopropylsulfonyl)-1H-pyrazol-4-yl)pyrimidin-4-yl)-N^4′-isopropyl-5-morpholino-[2,3′-bipyridine]-4′,6′-diamine]
0.7 nM	0.3 nM	8.9 nM	12.1 nM	44.8 nM	CC(C)Nc1cc(Nc2ccnc(-c3cnn(S(=O)(=O)C4CC4)c3)n2)ncc1-c1ccc(CN2CCOCC2)cn1 [Example 125, N^6′-(2-(1-(Cyclopropylsulfonyl)-1H-pyrazol-4-yl)pyrimidin-4-yl)-N^4′-isopropyl-5-(morpholinomethyl)-[2,3′-bipyridine]-4′,6′-diamine]
2.7 nM	1.2 nM	12.1 nM	12.6 nM	45.7 nM	O=S(=O)(C1CC1)n1cc(-c2nccc(Nc3cc(N[C@H]4CC[C@@H](F)CC4)c(-c4ccc(CN5CCOCC5)cn4)cn3)n2)cn1 [Example 126, N^6′-(2-(1-(Cyclopropylsulfonyl)-1H-pyrazol-4-yl)pyrimidin-4-yl)-N^4′-((1s,4s)-4-fluorocyclohexyl)-5-(morpholinomethyl)-[2,3′-bipyridine]-4′,6′-diamine]
17.5 nM	6.6 nM	> 10000 nM	> 10000 nM	> 10000 nM	CC(C)Nc1cc(Nc2ccnc(-c3cnn(S(=O)(=O)C4CC4)c3)n2)ncc1-c1cnc(OC(F)F)cn1 [Example 127, N^2-(2-(1-(Cyclopropylsulfonyl)-1H-pyrazol-4-yl)pyrimidin-4-yl)-5-(5-(difluoromethoxy)pyrazin-2-yl)-N^4-isopropylpyridine-2,4-diamine]
1.4 nM	0.5 nM	12.6 nM	12.9 nM	116 nM	O=S(=O)(C1CC1)n1cc(-c2nccc(Nc3cc(N[C@H]4CC[C@@H](CO)CC4)c(-c4cnc(OC(F)F)cn4)cn3)n2)cn1 [Example 129, ((1s,4s)-4-((2-((2-(1-(Cyclopropylsulfonyl)-1H-pyrazol-4-yl)pyrimidin-4-yl)amino)-5-(5-(difluoromethoxy)pyrazin-2-yl)pyridin-4-yl)amino)cyclohexyl)methanol]
3.9 nM	1.7 nM	281 nM	239 nM	> 10000 nM	CC(C)(O)[C@H]1CC[C@@H](Nc2cc(Nc3ccnc(-c4cnn(S(=O)(=O)C5CC5)c4)n3)ncc2-c2cnc(OC(F)F)cn2)CC1 [Example 130, 2-((1s,4s)-4-((2-((2-(1-(Cyclopropylsulfonyl)-1H-pyrazol-4-yl)pyrimidin-4-yl)amino)-5-(5-(difluoromethoxy)pyrazin-2-yl)pyridin-4-yl)amino)cyclohexyl)propan-2-ol]
0.2 nM	0.1 nM	2.1 nM	2.2 nM	8.1 nM	CN(C)C[C@H]1CC[C@@H](Nc2cc(Nc3ccnc(-c4cnn(S(=O)(=O)C5CC5)c4)n3)ncc2-c2cnc(OC(F)F)cn2)CC1 [Example 131, N^2-(2-(1-(Cyclopropylsulfonyl)-1H-pyrazol-4-yl)pyrimidin-4-yl)-5-(5-(difluoromethoxy)pyrazin-2-yl)-N^4-((1s,4s)-4-((dimethylamino)methyl)cyclohexyl)pyridine-2,4-diamine]
0.4 nM	0.4 nM	0.4 nM	0.3 nM	0.8 nM	CN1CCC(Oc2ccc(-c3cnc(Nc4ccnc(-c5cnn(S(=O)(=O)C6CC6)c5)n4)cc3N[C@H]3CC[C@@H](F)CC3)nc2)CC1 [Example 132, N^6′-(2-(1-(Cyclopropylsulfonyl)-1H-pyrazol-4-yl)pyrimidin-4-yl)-N^4′-((1s,4s)-4-fluorocyclohexyl)-5-((1-methylpiperidin-4-yl)oxy)-[2,3′-bipyridine]-4′,6′-diamine]
0.5 nM	0.3 nM	1.7 nM	1.4 nM	9.3 nM	CN1CCC(Oc2ccc(-c3cnc(Nc4ccnc(-c5cnn(CC(F)F)c5)n4)cc3N[C@H]3CC[C@@H](F)CC3)nc2)CC1 [Example 133, N^6′-(2-(1-(2,2-Difluoroethyl)-1H-pyrazol-4-yl)pyrimidin-4-yl)-N^4′-((1s,4s)-4-fluorocyclohexyl)-5-((1-methylpiperidin-4-yl)oxy)-[2,3′-bipyridine]-4′,6′-diamine]
0.9 nM	0.6 nM	32.1 nM	15.6 nM	34.2 nM	C[C@]1(O)CC[C@@H](Nc2cc(Nc3ccnc(-c4cnn(S(=O)(=O)C5CC5)c4)n3)ncc2-c2cnc(C(F)(F)F)cn2)CC1 [Example 134, (1s,4s)-4-((2-((2-(1-(Cyclopropylsulfonyl)-1H-pyrazol-4-yl)pyrimidin-4-yl)amino)-5-(5-(trifluoromethyl)pyrazin-2-yl)pyridin-4-yl)amino)-1-methylcyclohexan-1-ol]
0.5 nM	0.2 nM	19.1 nM	6.4 nM	69.8 nM	FC(F)Cn1cc(-c2nccc(Nc3cc(N[C@H]4CC[C@@H](F)CC4)c(-c4ccc(CN5CCOCC5)cn4)cn3)n2)cn1 [Example 136, N^6′-(2-(1-(2,2-difluoroethyl)-1H-pyrazol-4-yl)pyrimidin-4-yl)-N^4′-((1s,4s)-4-fluorocyclohexyl)-5-(morpholinomethyl)-[2,3′-bipyridine]-4′,6′-diamine]
1.1 nM	0.2 nM	74.4 nM	6.4 nM	272 nM	FC(F)Cn1cc(-c2nccc(Nc3cc(N[C@H]4CC[C@@H](F)CC4)c(-c4ccc(N5CCOCC5)cn4)cn3)n2)cn1 [Example 137, N^6′-(2-(1-(2,2-Difluoroethyl)-1H-pyrazol-4-yl)pyrimidin-4-yl)-N^4′-((1s,4s)-4-fluorocyclohexyl)-5-morpholino-[2,3′-bipyridine]-4′,6′-diamine]
0.1 nM	0.2 nM	4.9 nM	1.6 nM	32 nM	CN1CCC(Oc2ccc(-c3cnc(Nc4ccnc(-c5cnn(CC(F)F)c5)n4)cc3NC3CCC(F)(F)C3)nc2)CC1 (stereo not drawn) [Example 138, N^4′-(3,3-Difluorocyclopentyl)-N^6′-(2-(1-(2,2-difluoroethyl)-1H-pyrazol-4-yl)pyrimidin-4-yl)-5-((1-methylpiperidin-4-yl)oxy)-[2,3′-bipyridine]-4′,6′-diamine]
0.3 nM	0.3 nM	19.4 nM	5 nM	208 nM	CN1CCC(Oc2ccc(-c3cnc(Nc4ccnc(-c5cnn(CC(F)F)c5)n4)cc3NC3CC(F)(F)C3)nc2)CC1 [Example 139, N^4′-(3,3-Difluorocyclobutyl)-N^6′-(2-(1-(2,2-difluoroethyl)-1H-pyrazol-4-yl)pyrimidin-4-yl)-5-((1-methylpiperidin-4-yl)oxy)-[2,3′-bipyridine]-4′,6′-diamine]
0.2 nM	0.2 nM	8.3 nM	15.1 nM	67.6 nM	CN1CCC(Oc2ccc(-c3cnc(Nc4ccnc(-c5cnn(S(=O)(=O)C6CC6)c5)n4)cc3NC3CC(F)(F)C3)nc2)CC1 [Example 140, N^6′-(2-(1-(Cyclopropylsulfonyl)-1H-pyrazol-4-yl)pyrimidin-4-yl)-N^4′-(3,3-difluorocyclobutyl)-5-((1-methylpiperidin-4-yl)oxy)-[2,3′-bipyridine]-4′,6′-diamine]
0.03 nM	0.1 nM	1.2 nM	0.8 nM	12.4 nM	CN1CCC(Oc2ccc(-c3cnc(Nc4ccnc(-c5cnn(CC(F)F)c5)n4)cc3NC3CCCC(F)C3)nc2)CC1 (stereo not drawn) [Example 141, N^6′-(2-(1-(2,2-Difluoroethyl)-1H-pyrazol-4-yl)pyrimidin-4-yl)-N^4′-(3-fluorocyclohexyl)-5-((1-methylpiperidin-4-yl)oxy)-[2,3′-bipyridine]-4′,6′-diamine]

Reference: patent US12258328B2, “6-membered heteroaryl-containing aminopyridine compounds as EGFR inhibitors” (YUHAN CORPORATION, priority 2021, dated 2025)
